Paper PMC6006479, “Minimization of dynamic effects in the evolution of dihydrofolate reductase” (Chemical Science, 2016)

Molecular target: T1, MpDHFR (Moritella profunda, UniProt Q70YQ6)
T1 construct: gene dyrA; purified recombinant enzyme made in minimal medium; 'light' form with natural abundance isotopes; construct details only in supplement; monomeric
Assay: steady-state kinetics
Format: biochemical
Settings: light (natural abundance) enzyme, pH 7.0

T1 sequence (Q70YQ6 entry or part of it): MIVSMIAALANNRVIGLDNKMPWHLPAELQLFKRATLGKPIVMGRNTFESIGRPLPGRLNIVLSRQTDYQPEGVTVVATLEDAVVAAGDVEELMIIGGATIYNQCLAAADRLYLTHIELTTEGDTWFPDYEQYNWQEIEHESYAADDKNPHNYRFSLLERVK

Row | Structure (SMILES) | Michaelis constant (co-substrate NADPH) | Michaelis constant (co-substrate dihydrofolate)
1 | Nc1nc2c(c(=O)[nH]1)N=C(CNc1ccc(C(=O)N[C@@H](CCC(=O)O)C(=O)O)cc1)CN2 [DHF] | The Michaelis constants for NADPH and DHF are essentially the same for all these enzymes | –
2 | NC(=O)C1=CN([C@@H]2O[C@H](COP(=O)(O)OP(=O)(O)OC[C@H]3O[C@@H](n4cnc5c(N)ncnc54)[C@H](OP(=O)(O)O)[C@@H]3O)[C@@H](O)[C@H]2O)C=CC1 [NADPH] | – | The Michaelis constants for NADPH and DHF are essentially the same for all these enzymes
